Source: paper PMC7343616 (The FEBS journal, 2020)

Legend:
wild-type PR = settings: read-out: Ki for PR, ref Park et al. 2016. Biochemistry [18]; cited from earlier work
PR^S17 = settings: Ki for mutant/Ki for wild-type; ref Park et al. 2016. Biochemistry [18]; cited from earlier work
PRS5B [1] = target: PRS5B (Human immunodeficiency virus 1, UniProt P03367, A522V/A571V/C567A/C595A/E521D/E535N/G573T/I584V/L510I/L524M/M536I/N583D/Q507K/V511I, form not given); assay: FRET-based enzyme kinetic inhibition assay; assay type: biochemical, HIV-1; settings: read-out: Ki for PRS5B; FRET substrate, 50 mM MES pH 5.6, 37°C; mean ± SD (n=3–5)
isolate with PRS5B = settings: ref Stanford HIV database; cited from earlier work
PRS5B [2] = assay: FRET-based enzyme kinetic inhibition assay; assay type: biochemical, HIV-1; settings: Ki for mutant/Ki for wild-type

Row | SMILES | Ki (wild-type PR) | PR^S17 Ki fold change (PR^S17) | Ki (PRS5B [1]) | resistance in PhenoSense assay (isolate with PRS5B) | PRS5B Ki fold change (PRS5B [2])
1 | CC(C)CN(C[C@@H](O)[C@H](Cc1ccccc1)NC(=O)O[C@H]1CCOC1)S(=O)(=O)c1ccc(N)cc1 [APV, amprenavir] | 200 pM | – | – | – | –
2 | COC(=O)N[C@H](C(=O)N[C@@H](Cc1ccccc1)[C@@H](O)CN(Cc1ccc(-c2ccccn2)cc1)NC(=O)[C@@H](NC(=O)OC)C(C)(C)C)C(C)(C)C [ATV, atazanavir] | 35 pM | 2,000 fold | 8400 ± 900 pM | – | –
3 | CC(C)CN(C[C@@H](O)[C@H](Cc1ccccc1)NC(=O)O[C@H]1CO[C@H]2OCC[C@H]21)S(=O)(=O)c1ccc(N)cc1 [DRV, darunavir] | 5 pM | – | – | – | –
4 | CC(C)(C)NC(=O)[C@@H]1CN(Cc2cccnc2)CCN1C[C@@H](O)C[C@@H](Cc1ccccc1)C(=O)N[C@H]1c2ccccc2C[C@H]1O [IDV, indinavir] | 250 pM | – | – | – | –
5 | Cc1cccc(C)c1OCC(=O)N[C@@H](Cc1ccccc1)[C@@H](O)C[C@H](Cc1ccccc1)NC(=O)[C@H](C(C)C)N1CCCNC1=O [LPV, lopinavir] | 20 pM | 3,650 fold | 160000 ± 10000 pM | significant resistance, although not the highest level | 8,000 fold
6 | Cc1c(O)cccc1C(=O)N[C@@H](CSc1ccccc1)[C@H](O)CN1C[C@H]2CCCC[C@H]2C[C@H]1C(=O)NC(C)(C)C [NFV, nelfinavir] | 360 pM | – | – | – | –
7 | CC(C)(C)NC(=O)[C@@H]1C[C@@H]2CCCC[C@@H]2CN1C[C@@H](O)[C@H](Cc1ccccc1)NC(=O)[C@H](CC(N)=O)NC(=O)c1ccc2ccccc2n1 [SQV, saquinavir] | 390 pM | – | – | – | –
8 | CCC[C@@]1(CCc2ccccc2)CC(O)=C([C@H](CC)c2cccc(NS(=O)(=O)c3ccc(C(F)(F)F)cn3)c2)C(=O)O1 [TPV, tipranavir] | – | – | 8600 ± 1200 pM | – | –
